Data published in EPA's ToxRefDB 2.

How the values were obtained:
rat [1] = details: Combined chronic toxicity/carcinogenicity, fischer, Oral, Feed, dose end: 104 week, group: systemic
rabbit = details: Prenatal developmental toxicity study; new zealand white; Oral; Gavage/Intubation; dose end: 19 GD; group: maternal; systemic / in life observation / body weight / body weight gain + systemic / in life observation / clinical signs / altered breathing rate…
rat [2] = details: Prenatal developmental toxicity study, sprague dawley, Oral, Gavage/Intubation, dose end: 15 GD
dog [3] = details: Subchronic oral toxicity in nonrodent, beagle, Capsule, dose end: 13 week, group: systemic
rat [4] = details: Subchronic oral toxicity in rodents, fischer, Feed, dose end: 13 week, group: systemic
dog [5] = details: Chronic toxicity; beagle; Oral; Capsule; dose end: 52 week; group: systemic; systemic / hematology / mean corpuscular hemoglobin (mch) / mean corpuscular hemoglobin (mch) + systemic / hematology / mean corpuscular …
mouse = details: Carcinogenicity, cd1, Oral, Feed, dose end: 80 week, group: systemic
rat [6] = details: Multigenerational reproductive toxicity study, sprague dawley, Oral, Feed, dose end: 2 generation; for LEL / NEL: systemic / organ weight / liver / relative to body weight
[7] = systemic / clinical chemistry / protein / protein
[8] = group: developmental, developmental / developmental malformation / bone / full supernumerary
[9] = group: developmental, developmental / developmental malformation / bone / full supernumerary + developmental / developmental malformation / bone / incomplete …
[10] = group: maternal, systemic / organ weight / placenta / nos
[11] = group: maternal, systemic / organ weight / placenta / nos + systemic / in life observation / body weight / body weight + systemic / in life observation / …
[12] = systemic / clinical chemistry / glucose / glucose + systemic / clinical chemistry / alanine aminotransferase (alt/sgpt) / alanine …
[13] = systemic / clinical chemistry / cholesterol / cholesterol + systemic / hematology / hematocrit (hct) / hematocrit (hct) + systemic / …
[14] = systemic / hematology / hematocrit (hct) / hematocrit (hct)
[15] = group: parental, systemic / in life observation / body weight / body weight gain + systemic / organ weight / liver / relative to body weight + systemic / …

Clc1ccc(C2(Cn3cncn3)CC(Br)CO2)c(Cl)c1 (centres undefined) [Bromuconazole]
LEL (rat [1]; [7]): 0.88 mg/kg/day
NEL (rat [1]; [7]): < 0.88 mg/kg/day
LOAEL (rat [1]; systemic / pathology microscopic / liver / vacuolization): 8.27 mg/kg/day
NOAEL (rat [1]; systemic / pathology microscopic / liver / vacuolization + systemic / in life observation / body weight / body weight + systemic / in life …): 1.09 mg/kg/day
LEL (rabbit): 50 mg/kg/day
LOAEL (rabbit): 50 mg/kg/day
NEL (rabbit): 12.5 mg/kg/day
NOAEL (rabbit): 12.5 mg/kg/day
LEL (rat [2]; [8]): 70 mg/kg/day
LOAEL (rat [2]; [8]): 70 mg/kg/day
NEL (rat [2]; [9]): 10 mg/kg/day
NOAEL (rat [2]; [9]): 10 mg/kg/day
LEL (rat [2]; [10]): 70 mg/kg/day
LOAEL (rat [2]; [10]): 70 mg/kg/day
NEL (rat [2]; [11]): 10 mg/kg/day
NOAEL (rat [2]; [11]): 10 mg/kg/day
LOAEL (dog [3]; systemic / clinical chemistry / glucose / glucose): 25 mg/kg/day
NEL (dog [3]; [12]): 2.5 mg/kg/day
NOAEL (dog [3]; [12]): 2.5 mg/kg/day
LEL (dog [3]; systemic / clinical chemistry / glucose / glucose + systemic / organ weight / liver / relative to body weight): 25 mg/kg/day
LOAEL (rat [4]; [13]): 68.1 mg/kg/day
NOAEL (rat [4]; [13]): 13.8 mg/kg/day
LEL (rat [4]; [14]): 2.72 mg/kg/day
NEL (rat [4]; [14]): < 2.72 mg/kg/day
LEL (dog [5]): 25 mg/kg/day
LOAEL (dog [5]): 25 mg/kg/day
NEL (dog [5]): 2.5 mg/kg/day
NOAEL (dog [5]): 2.5 mg/kg/day
LOAEL (mouse; systemic / in life observation / body weight / body weight gain): 113 mg/kg/day
NOAEL (mouse; systemic / in life observation / body weight / body weight gain + systemic / pathology microscopic / liver / adenoma + systemic / organ …): 10.8 mg/kg/day
NEL (mouse; systemic / organ weight / liver / absolute + systemic / organ weight / liver / relative to body weight + systemic / organ weight / adrenal …): 370 mg/kg/day
LOAEL (rat [6]; group: offspring, systemic / in life observation / body weight / offspring (pup) weight gain): 141 mg/kg/day
NOAEL (rat [6]; group: offspring, systemic / in life observation / body weight / offspring (pup) weight gain + developmental / offspring survival late / viability index / …): 13.8 mg/kg/day
LEL (rat [6]; group: offspring): 1.6 mg/kg/day
NEL (rat [6]; group: offspring): < 1.6 mg/kg/day
LOAEL (rat [6]; [15]): 141 mg/kg/day
NOAEL (rat [6]; [15]): 13.8 mg/kg/day
LEL (rat [6]; group: parental): 1.3 mg/kg/day
NEL (rat [6]; group: parental): < 1.3 mg/kg/day
